Calls of active or inactive are those of the source. The calls are words filed in the database; no cut-off is given here.
Key:
[1] = test system: Human immunodeficiency virus 1; test: Antiviral activity against HIV1 harboring reverse transcriptase L100I mutant infected in human MT4 cells assessed as protection against virus-induced cytopathic effect incubated for 5 days by MTT assay; assay type: functional, organism-based; conditions: Human immunodeficiency virus 1, MT4, 120 h
[2] = test system: Human immunodeficiency virus 1; test: Antiviral activity against HIV1 harboring reverse transcriptase E138K mutant infected in human MT4 cells assessed as protection against virus-induced cytopathic effect incubated for 5 days by MTT assay; assay type: functional, organism-based; conditions: Human immunodeficiency virus 1, MT4, 120 h
[3] = Selectivity index, ratio of CC50 for mock-infected human MT4 cells to EC50 for HIV1 RES056 infected in human MT4 cells; assay type: toxicity, cell-based; conditions: MT4 cells (mock-infected and HIV1 RES056 infected), read-out: Ratio CC50/EC50
[4] = test system: Human immunodeficiency virus 1; test: Antiviral activity against HIV1 harboring reverse transcriptase Y181C mutant infected in human MT4 cells assessed as protection against virus-induced cytopathic effect incubated for 5 days by MTT assay; assay type: functional, organism-based; conditions: Human immunodeficiency virus 1, MT4, 120 h
[5] = test system: Human immunodeficiency virus 1; test: Antiviral activity against HIV1 RES056 infected in human MT4 cells assessed as protection against virus-induced cytopathic effect incubated for 5 days by MTT assay; assay type: functional, organism-based; conditions: Human immunodeficiency virus 1, RES056, MT4, 120 h
[6] = test system: Human immunodeficiency virus 1; test: Antiviral activity against HIV1 harboring reverse transcriptase K103N mutant infected in human MT4 cells assessed as protection against virus-induced cytopathic effect incubated for 5 days by MTT assay; assay type: functional, organism-based; conditions: Human immunodeficiency virus 1, MT4, 120 h
[7] = test system: Human immunodeficiency virus 1; test: Antiviral activity against HIV1 harboring reverse transcriptase Y188L mutant infected in human MT4 cells assessed as protection against virus-induced cytopathic effect incubated for 5 days by MTT assay; assay type: functional, organism-based; conditions: Human immunodeficiency virus 1, MT4, 120 h
[8] = test system: Human immunodeficiency virus 2; test: Antiviral activity against HIV2 ROD infected in human MT4 cells assessed as protection against virus-induced cytopathogenicity after 5 days by MTT assay; assay type: functional, organism-based; conditions: time 5.0 day
[9] = Selectivity index, ratio of CC50 for mock-infected human MT4 cells to EC50 for HIV1 3B infected in human MT4 cells; assay type: toxicity, cell-based; conditions: MT4 cells (mock-infected and HIV1 3B infected), read-out: Ratio CC50/EC50
[10] = Cytotoxicity against mock-infected human MT4 cells assessed as reduction in cell viability measured after 5 days by MTT assay; assay type: cell-based; conditions: time 5 day
[11] = test system: Human immunodeficiency virus 1; test: Antiviral activity against HIV1 harboring reverse transcriptase F227L/V106A double mutant infected in human MT4 cells assessed as protection against virus-induced cytopathic effect incubated for 5 days by MTT assay; assay type: functional, organism-based; conditions: Human immunodeficiency virus 1, MT4, 120 h
[12] = test system: Human immunodeficiency virus 1; test: Antiviral activity against HIV1 3B infected in human MT4 cells assessed as protection against virus-induced cytopathic effect incubated for 5 days by MTT assay; assay type: functional, organism-based; conditions: Human immunodeficiency virus 1, 3B, MT4, 120 h
[13] = target: Human immunodeficiency virus type 1 reverse transcriptase (Human immunodeficiency virus 1, UniProt Q72547); test: Inhibition of wild type HIV1 p66/p51 reverse transcriptase using poly(rA) as template, oligo(dT)16 as primer and RNA/DNA as substrate measured after 40 mins by PICOGreen-dye based spectrofluorimetry analysis

SMILES	EC50 [1] [nM]	EC50 [2] [nM]	selectivity ratio [3]	EC50 [4] [nM]	EC50 [5] [nM]	EC50 [6] [nM]	EC50 [7] [nM]	Activity [8]	selectivity ratio [9]	CC50 at 120 h [10] [nM]	EC50 [11] [nM]	EC50 [12] [nM]	IC50 [13] [nM]
Cc1cc(C#N)cc(C)c1Oc1nc(Nc2ccc(C#N)nc2)nn2cccc12	204	> 69100	57	171	1220	11.9	> 69100	inactive	9830	69100	> 69100	7	14
Cc1cc(C#N)cc(C)c1Oc1nc(Nc2ccc(C#N)cn2)nc2c1ccn2COCC[Si](C)(C)C	–	–	< 1	–	> 93900	–	–	inactive	< 1	93900	–	> 93900	31000
Cc1cc(C#N)cc(C)c1Oc1nc(Nc2ccc(C#N)cc2)nc2c1ccn2COCC[Si](C)(C)C	–	–	< 1	–	> 2960	–	–	inactive	4	3000	–	820	171
Cn1c(Cn2ccc(C(F)(F)F)c(Oc3cc(Cl)cc(C#N)c3)c2=O)n[nH]c1=O [DORAVIRINE]	–	–	> 20100	–	15	–	–	–	> 21900	> 294000	–	13	–
Cc1cc(C#N)cc(C)c1Oc1nc(Nc2ccc(C#N)cc2)nc(N)c1Br [ETRAVIRINE]	7.4	15.2	–	213	473	3.9	27.2	–	–	> 4600	25.7	4.8	–
Cc1cc(C#N)cc(C)c1Oc1nc(Nc2ccc(C#N)cc2)nc2c1CCCC2	12.8	19	–	52.7	–	7.1	24.5	inactive	298	–	58.4	10.6	52
Cc1cc(C#N)cc(C)c1Oc1nc(Nc2ccc(C#N)cc2)nc2c1ccn2CO	20.1	> 707	6	31.2	128	3.7	> 707	inactive	137	830	> 707	6.1	40
Cc1cc(C=O)cc(C)c1Oc1nc(Nc2ccc(C#N)nc2)nc2c1CCCC2	–	–	2	–	9210	–	–	inactive	590	20900	–	35.4	43
Cc1cc(C#N)cc(C)c1Oc1nc(Nc2ccc(CC#N)cc2)nc2c1CCCC2	68.5	> 4520	4	283	1020	9.9	> 4520	inactive	385	4500	> 4520	11.7	53
Cc1cc(C=O)cc(C)c1Oc1nc(Nc2ccc(C#N)cn2)nc2c1CCCC2	–	–	58	–	> 35300	–	–	inactive	1250	293000	–	234	58
Cc1cc(C=O)cc(C)c1Oc1nc(Nc2ccc(C#N)cc2)nc2c1CCCC2	492	146	5	748	1200	63.7	663	inactive	169	5900	2240	35.1	55
Cc1cc(C#N)cc(C)c1Oc1nc(Nc2ccc(S(C)(=O)=O)cc2)nc2c1CCCC2	–	–	–	–	> 279000	–	–	inactive	> 4920	> 279000	–	56.7	69
Cc1cc(C#N)cc(C)c1Oc1nc(Nc2ccc(OC(F)(F)F)cc2)nc2c1CCCC2	–	–	–	–	> 275000	–	–	inactive	> 3410	> 275000	–	80.6	61000
Cc1cc(C#N)cc(C)c1Oc1nc(Nc2ccc(C#N)nc2)nc2c1ccn2CO	–	–	–	–	> 138000	–	–	inactive	≥ 2950	≥ 138000	–	46.9	47
Cc1cc(/C=C/C#N)cc(C)c1Oc1nc(Nc2ccc(CC#N)cc2)nc2c1CCCC2	49	> 25800	112	140	433	12.9	> 25800	inactive	2730	48300	> 25800	17.7	49
Cc1cc(/C=C/C(N)=O)cc(C)c1Oc1nc(Nc2ccc(C#N)cc2)nn2cccc12	–	–	10	–	5850	–	–	inactive	1590	57600	–	36.3	53
O=C1Nc2ccc(Cl)cc2[C@@](C#CC2CC2)(C(F)(F)F)O1 [EFAVIRENZ]	51.6	6	> 44	–	144	–	244	–	> 1390	> 6300	274	4.5	–
Cc1cc(C#N)cc(C)c1Oc1nc(Nc2ccc(C#N)nc2)nc2c1ccn2COCC[Si](C)(C)C	–	–	< 1	–	> 117000	–	–	inactive	463	117000	–	253	7400
Cc1cc(C#N)cc(C)c1Oc1nc(Nc2ccc(C#N)nc2)nc2c1CCCC2	–	–	< 19	–	> 12600	–	–	inactive	228	244000	–	1070	50
